Laboratory results: the supplement of paper PMC10627819

Legend:
[1] = system: B. subtilis 168; assay: fitness (endpoint OD595 vs no drug) (fraction); higher = more growth
In short: (§1)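 Background-subtracted growth curves were the basis for fitness, taken as the optical density at entry into stationary phase over the robust mean of no-drug control wells. A cap of 1 was applied. The curves came from OD595 readings every 30 min for 14 h at 37 °C, in 384-well plates seeded at OD595 0.01 with 30 µl, or 55 µl for S. pneumoniae.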

[2] = system: S. aureus DSM 20231; assay: as above
In short: as §1

[3] = system: S. aureus Newman; assay: as above
In short: as §1

[4] = system: S. pneumoniae D39V; assay: as above
In short: as §1

[5] = system: B. subtilis 168; assay: Bliss interaction score (quartile over a dose matrix) (fitness difference); higher = more antagonism (negative = synergy)
In short: (§2)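 Each OD595 reading at entry into stationary phase was scaled to the robust mean of the untreated wells on its plate, with a ceiling of 1. These ratios define fitness, and single-drug fitness was inferred from combinations. The Bliss score compares observed fitness with the product-based expectation and is reported as quartiles across all replicate types, technical, biological and donor/recipient.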

[6] = system: S. aureus DSM 20231; assay: as above
In short: as §2

[7] = system: S. aureus Newman; assay: as above
In short: as §2

[8] = system: S. pneumoniae D39V; assay: as above
In short: as §2
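Wherever Bliss interaction score (quartile over a dose matrix) is given: first quartile when negative (synergy) and third quartile when positive (antagonism).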

Cc1ncc([N+](=O)[O-])n1CCO [Metronidazole] + CC1=C\[C@@H](O)CC(=O)Cc2nc(co2)C(=O)N2CCC=C2C(=O)O[C@H](C(C)C)[C@H](C)/C=C/C(=O)NC\C=C\1 [Virginiamycin M1]
Details	fitness
[1], first compound 0.625 µg/mL, partner 0.0625 µg/mL	0.995
[1], first compound 0.625 µg/mL, partner 0.125 µg/mL	0.946
[1], first compound 0.625 µg/mL, partner 0.25 µg/mL	0.956
[1], first compound 1.25 µg/mL, partner 0.0625 µg/mL	0.951
[1], first compound 1.25 µg/mL, partner 0.125 µg/mL	0.938
[1], first compound 1.25 µg/mL, partner 0.25 µg/mL	≥ 1
[1], first compound 2.5 µg/mL, partner 0.0625 µg/mL	0.929
[1], first compound 2.5 µg/mL, partner 0.125 µg/mL	0.944
[1], first compound 2.5 µg/mL, partner 0.25 µg/mL	0.96
[2], first compound 0.625 µg/mL, partner 0.0625 µg/mL	≥ 1
[2], first compound 0.625 µg/mL, partner 0.125 µg/mL	≥ 1
[2], first compound 0.625 µg/mL, partner 0.25 µg/mL	≥ 1
[2], first compound 1.25 µg/mL, partner 0.0625 µg/mL	≥ 1
[2], first compound 1.25 µg/mL, partner 0.125 µg/mL	≥ 1
[2], first compound 1.25 µg/mL, partner 0.25 µg/mL	≥ 1
[2], first compound 2.5 µg/mL, partner 0.0625 µg/mL	≥ 1
[2], first compound 2.5 µg/mL, partner 0.125 µg/mL	≥ 1
[2], first compound 2.5 µg/mL, partner 0.25 µg/mL	≥ 1
[3], first compound 0.625 µg/mL, partner 0.0625 µg/mL	0.97
[3], first compound 0.625 µg/mL, partner 0.125 µg/mL	0.973
[3], first compound 0.625 µg/mL, partner 0.25 µg/mL	0.975
[3], first compound 1.25 µg/mL, partner 0.0625 µg/mL	0.984
[3], first compound 1.25 µg/mL, partner 0.125 µg/mL	0.993
[3], first compound 1.25 µg/mL, partner 0.25 µg/mL	≥ 1
[3], first compound 2.5 µg/mL, partner 0.0625 µg/mL	0.992
[3], first compound 2.5 µg/mL, partner 0.125 µg/mL	≥ 1
[3], first compound 2.5 µg/mL, partner 0.25 µg/mL	0.991
[4], first compound 1.073 µg/mL, partner 0.5 µg/mL	≥ 1
[4], first compound 1.073 µg/mL, partner 1 µg/mL	≥ 1
[4], first compound 1.073 µg/mL, partner 2 µg/mL	≥ 1
[4], first compound 1.25 µg/mL, partner 2 µg/mL	0.944
[4], first compound 2.145 µg/mL, partner 0.5 µg/mL	0.912
[4], first compound 2.145 µg/mL, partner 1 µg/mL	0.945
[4], first compound 2.145 µg/mL, partner 2 µg/mL	0.877
[4], first compound 2.5 µg/mL, partner 2 µg/mL	0.94
[4], first compound 4.29 µg/mL, partner 0.5 µg/mL	≥ 1
[4], first compound 4.29 µg/mL, partner 1 µg/mL	0.994
[4], first compound 4.29 µg/mL, partner 2 µg/mL	≥ 1
[4], first compound 5 µg/mL, partner 2 µg/mL	0.946

fitness, one replicate
Details	first compound 0.625 µg/mL	first compound 1.25 µg/mL	first compound 2.5 µg/mL	first compound 5 µg/mL
[2], partner 0.5 µg/mL	0.825	0.842	0.978	–
[2], partner 1 µg/mL	0.725	0.827	0.908	–
[3], partner 0.5 µg/mL	0.902	0.899	0.89	–
[3], partner 1 µg/mL	0.912	0.922	≥ 1	–
[3], partner 2 µg/mL	0.919	0.919	0.949	–
[4], partner 0.15 µg/mL	–	≥ 1	≥ 1	≥ 1
[4], partner 0.3 µg/mL	–	≥ 1	0.987	0.96
[4], partner 0.5 µg/mL	–	≥ 1	0.973	≥ 1
[4], partner 1 µg/mL	–	≥ 1	≥ 1	≥ 1

Details	Bliss interaction score
[5]	-0.0294
[6]	0.0516
[7]	0.0634
[8]	0.0226
